Measured values from ChEMBL document CHEMBL3507680, “University of Dundee, Gates Library screen for HepG2 cell viability”.

Assay: Human HepG2 cell viability assay in 384 well format
Assay type: toxicity, cell-based
Design: dose 125 nL, time 70.5 hour; cytotoxicity at 70.5 h: concentration not given beside the values
Details: HepG2 cells, read-out: Inhibition

Compound	cytotoxicity at 70.5 h
c1cnc(N2CCC3(CCN(CC4CCOC4)C3)CC2)nc1 (centres undefined)	-17.9%
Cc1nc(C(=O)N2CCCC(c3nc(C(C)C)cs3)C2)c[nH]1 (centres undefined)	12.6%
COCc1cncc2c1CCN(Cc1cccs1)C2	0.63%
COCCN1CCN(c2nc(C3CCCC3)nc3c2cnn3C)CC1	-16.1%
Cc1cccc2c(=O)c(C(=O)N3CCCC4(CN(C)C(=O)O4)C3)c[nH]c12 (centres undefined)	-3.6%
CCOc1ccc(C#N)cc1NCc1cc(C)on1	27.9%
Cc1cc(NC(=O)CN2CCn3c(nnc3C3CC3)C2)n(C)n1	7.81%
Cc1cc(S(=O)(=O)NCC(C)(O)CN(C)C)c(F)cc1F (centres undefined)	-9.95%
Cc1cnn(CC2CCN(CC(O)c3ccccc3Cl)CC2)c1 (centres undefined)	-3.1%
CCSc1cc(C(=O)NCc2ccc(C(=O)NC)cc2)ccn1	-81.1%
COc1ccc(Oc2ncccc2NC(=O)N2CCOCC2C)cc1 (centres undefined)	-1.92%
CN(Cc1ccco1)C(=O)NCc1nnc2n1CCC2	-8.06%
CCc1noc(CN2CCC(NC(=O)c3ccc(C)s3)CC2)n1	-9.12%
Cn1cc(CN2CCC3(CC(=O)N(c4ccc5c(c4)OCO5)C3)C2)cn1 (centres undefined)	-9.01%
Cc1ccccc1[C@@H]1CN(Cc2ccc(C(F)(F)F)nc2)C[C@H]1C(=O)O	-4.46%
Cc1ccc([C@@H]2CN(C(=O)c3ccsc3)C[C@H]2NC(=O)C2CC2)cc1	-8.66%
CCN(C)c1ncnc2c1CCN(C(=O)c1cnccn1)CC2	-12.8%
O=C1CN(c2ccc(CNC(=O)Nc3nnc(C4CC4)s3)cc2)CCN1	21.5%
O=C(Cn1ccc(C(=O)O)n1)Nc1c(Cl)cccc1Cl	-3.45%
Cc1ccnc(NCCNC(=O)Cc2c(C)[nH]c3c(C)ccc(C)c23)c1	34.5%
Fc1cccc(-c2n[nH]cc2-c2nc(CN3CCOCC3)no2)c1	15.5%
COc1ccc(CN2CCOC3(CCCN(c4cnccn4)C3)C2)cc1 (centres undefined)	-4.22%
CSCCCN1CCn2nc(CNC(=O)N(C)C)cc2C1	0.863%

Compound	cytotoxicity at 70.5 h
CN1CCCC(Cc2cncc(C(=O)NCC3CC3)c2)C1 (centres undefined)	-1.13%
CN(Cc1ccc(N2CCOCC2)cc1)C(=O)Cn1cccnc1=O	-3.91%
Cc1cccc(C(=O)N2CCc3c(COCC4CC4)cncc3C2)n1	-10.4%
COc1ccc(C2CCCN2S(=O)(=O)N(C)C)cc1 (centres undefined)	-6.59%
Cc1noc(C)c1CNc1cccc(C(=O)N(C)c2ccccc2)c1	14.2%
NCC1Cc2cccc(-c3ccc(O)c(F)c3)c2O1 (centres undefined)	-13.6%
Cc1ccc(N(C)[C@@H]2CC[C@@H]3CN(C(=O)C4CCOCC4)C[C@@H]32)nn1	-6.01%
Cc1cc(C)cc(OCCCn2nc3ccccn3c2=O)c1	-13.4%
CC(C#N)CN(C)C(=O)CCNC(=O)OC(C)(C)C (centres undefined)	-6.35%
O=C1CCOC[C@]2(CN(Cc3ccccc3)C[C@H]2c2cccc(F)c2)N1	-2.96%
CCN(CC)C(=O)Cn1ccc2cc(NC(=O)C3CCCCC3)ccc21	14.5%
Cc1nnc(NCc2ccc(Cl)cc2)o1	-6.23%
Cc1ccccc1CC(=O)N(C)C1CCN(c2ccccn2)CC1	25.2%
CCOc1nn(CC)cc1-c1nnc(SCC)n1C	-12.3%
CC(C)c1nc(C2CCCN2CCNS(C)(=O)=O)no1 (centres undefined)	-19.2%
O=C1CN(C(=O)[C@H]2CC[C@]3(CC2)CNC(=O)c2ccccc2O3)CCN1	-8.28%
Cn1cccc1CNCc1nnc2n1CCCC2C(F)(F)F (centres undefined)	-5.37%
CCCc1nc(N2CCSCC2)c2c(n1)c(C)nn2CC	-13.1%
CC(=O)N1CC(c2ncn(C(C)C)n2)c2cc(C(=O)NC(C)C)ccc21 (centres undefined)	-4.9%
Cc1cc2nc(-c3ccccc3)cc(NCC3CCCOC3)n2n1 (centres undefined)	0.476%
O=C(CCN1CCCCO1)NCCSc1cnn[nH]1	-3.27%
O=C(O)c1cccc(N2CCC(Oc3cccc(F)c3)CC2)n1	-7%
CC(C)c1nnc2n1CCN(C(=O)c1ccc(-n3cnnc3)cc1)C2	27.3%

Compound	cytotoxicity at 70.5 h
Cc1ccc(CN(C)C(=O)CNC(=O)N2CCc3ccccc3C2)o1	17.9%
CNc1nc2c(s1)C(c1c(Cl)cccc1Cl)CC(=O)N2 (centres undefined)	-15.8%
O=C(c1ccno1)N1CC[C@@H]2CN(C3CCOCC3)CCO[C@@H]2C1	-5.94%
O=C(NC1CCCC1)N1CCCCC1c1nc(C2CC2)no1 (centres undefined)	-15.1%
COC(=O)c1cccn1C1CCN(C(=O)c2cn[nH]c2C)CC1	-1.46%
Cn1nc(N2CCCC(C(=O)Nc3nccs3)C2)ccc1=O (centres undefined)	18%
O=C1OCCN1CCNc1ncc2c(n1)CCN2c1ccccc1	-6.11%
NCCO[C@H]1C[C@@H](O)C12CCN(C(=O)COc1cccc(Cl)c1)CC2	-5.89%
CCc1ccc(CN2Cc3nccn3CC(Cn3cncn3)C2)o1 (centres undefined)	2.9%
Cc1ccc(NC(=O)CC2Cn3ncnc3NC2=O)cc1C (centres undefined)	-8.36%
COc1ncccc1NC(=O)N1CCCC(CNC(=O)OC(C)(C)C)C1 (centres undefined)	-6.55%
O=C(NCc1ccccc1-n1cccn1)C1CC2(CCNCC2)CN1 (centres undefined)	-1.74%
CNCC(=O)N1CC(c2cc(Nc3ncccn3)nc(C)n2)C1	-20.3%
CCCN1CCN(C(=O)c2cccnc2-n2cncn2)CC1	-2.43%
CCCS(=O)(=O)NCC(C)(O)c1ccsc1 (centres undefined)	-4.32%
c1ccc2c(c1)COC1(CCCC1)N2	22.7%
Cc1nc(CN2CCO[C@H]3CN(C(=O)c4ccncc4)C[C@H]32)cs1	6.5%
CN(C)C(=O)CN1CCCc2c(F)cc(Br)cc21	-2.61%
NC(=O)COc1ccc(CNCc2c(F)cccc2F)cc1	-3.08%
Cc1ccsc1C(=O)N1CCc2ncc(CN(C)C)n2CC1	-7.39%
CN(CC1CCCO1)c1nc(-c2cccnc2)nc2c1CCNCC2 (centres undefined)	-10.6%
O=C(NCCN1CCC(c2cccs2)CC1)c1ccc(F)cc1Cl	-3.13%
CN(Cc1noc(C2CC2)n1)C1CCN(Cc2ccccc2C#N)C1 (centres undefined)	17.8%

Compound	cytotoxicity at 70.5 h
CCn1cc(CN2CCC(O)(Cn3ccc4ncccc43)CC2)cn1	-0.72%
COc1ccc(CNC(=O)c2ccoc2CN2CCNC(=O)C2)cc1	22.4%
CCn1ncc2[nH]c(-c3ccc(OC)c(COC)c3)nc21	-6.61%
O=C(c1ccc[nH]1)N1CCCC(c2cc(C(F)(F)F)[nH]n2)C1 (centres undefined)	-0.878%
CC(C)NC(=O)N(C)C1CCN(c2ccccc2Cl)C1=O (centres undefined)	-21.1%
O=C(CC1CC1)N1C[C@H]2CCN[C@H]2C1	-4.97%
CCn1nc(C)c(CN(C)S(=O)(=O)c2cnn(C)c2)c1C	-5.84%
Cc1noc(CN(Cc2cccs2)C2CCS(=O)(=O)C2)n1 (centres undefined)	-3.18%
CC(=O)Nc1nc(CS(=O)(=O)CCCc2ccccc2)cs1	-9.04%
Cc1ccc(C)c(-n2ncc(NC(=O)NC3(C)CCOC3)c2C)c1 (centres undefined)	14.4%
CC(C)N1CCc2c(C#N)c(NCc3ccco3)n3cnnc3c2C1	-10.3%
Cc1cccc(CNC(=O)CC2CCN(C(=O)C(C)C)CC2)n1	6.37%
Cc1nc(N)c2ccc(C3CCCN3)nc2n1 (centres undefined)	-9.62%
CCCN1CCN(C(=O)c2ccc3ccccc3n2)[C@H]2CS(=O)(=O)C[C@H]21	13.2%
CCC(O)CN1CCN(C(=O)Cc2nc(-c3ccco3)oc2C)CC1 (centres undefined)	-2.09%
CC(C)C[C@@H]1N[C@H](C(=O)NC(C)C)Cc2c[nH]c3cccc1c23	-1.24%
CC(C)OC(=O)N1CCCCC1CCn1cccn1 (centres undefined)	-7.8%
Cn1ccc2c(-c3ccc(NCCO)nn3)ccnc21	-9.8%
Cc1cccc2[nH]c(C3CCN(C(=O)c4ccnn4C)CC3)nc12	0.0948%
CNC(=O)CN(C)CC1(c2ccc(Br)cc2)CC1	0.137%
Cc1ncc(C(=O)N2CCCC2(C)C(=O)N2CCOCC2)c(C)n1 (centres undefined)	-7.99%
O=C(c1cc(C2CC2)n[nH]1)N1C[C@H]2CC[C@](O)(c3ccccc3F)[C@H]2C1	-2.83%
Cc1ncnc2c1CCN(C(=O)c1ccncc1)CC2	8.77%

Compound	cytotoxicity at 70.5 h
CCSc1ncc(CN2CCN(c3nc(C)cnc3C)CC2)cn1	23.3%
O=C(CC1=CCCCC1)N1CCC(Cn2cc(CCO)nn2)CC1	-11.5%
O=C(NC1CC1)N1CCc2ccc(=O)n(CC3CC3)c2CC1	-1.74%
O=C(CCNc1ncccn1)NCCOc1ccc2c(c1)CCC2	-16.3%
COCCC1(CO)CCCN(Cc2ccc(C(F)(F)F)cc2)C1 (centres undefined)	-4.92%
COc1ccc(C(N)=O)cc1NCc1noc(-c2ccsc2)n1	-10.8%
Cn1cc(CN2CCO[C@@H]3CN(Cc4ccoc4)C[C@@H]3C2)cn1	-0.642%
O=c1cc(Cn2cncn2)nc2n1CCCN(CCN1CCCC1)C2	-9.08%
COc1ccc2cc(C(=O)N3CCCCC3CC(N)=O)[nH]c2c1 (centres undefined)	-15.1%
Cc1nnsc1-c1nnc2sc(C3CCC3)nn12	-10%
CCOC(=O)c1sc(NC(=O)C(C)(C)C)c(C#N)c1C	41.6%
O=C(Cn1cc(I)cn1)NCC1CCC1	-20.2%
COCC(=O)N1CCc2ccc(=O)n(Cc3csc(C)n3)c2CC1	-6.47%
Fc1ccc(Oc2nccnc2C2CCN(C3CCOCC3)CC2)cc1	-3.07%
Cc1nc(C(C)NCc2cc(O)c3cccc(F)c3n2)cs1 (centres undefined)	-6.76%
CCc1ccc(C(NC(=O)CN(C)S(C)(=O)=O)C(C)(C)C)o1 (centres undefined)	-7.8%
CC(CS(C)(=O)=O)NC(=O)N1CC2(CCCC2)c2ccccc21 (centres undefined)	-2.3%
CCN1Cc2ccccc2CC2(CCN(C(=O)N(C)C)CC2)C1=O	-5.37%
CCn1c(C2CCNCC2)nn(CCCc2ccccc2)c1=O	-5.09%
CNc1cc(C2CN(C(=O)c3ccccc3)CCO2)nc(C)n1 (centres undefined)	-5.28%
Cc1ccc(O[C@@H]2C[C@H]3CN(c4ncc(F)cn4)CCN3C2)cc1	-0.913%
O=C(NCc1ccnc(-n2cccn2)c1)C1CC(=O)N(CC2CC2)C1 (centres undefined)	-8.83%
